Assay results as given in patent US20250382273A1 (INSTITUT NATIONAL DE LA SANTE ET DE LA RECHERCHE MEDICALE, priority 2022, published 2025).
Where two headings read alike, the source gives them in different places.

Test system: M. tuberculosis H37Rv_DdnL49P_gfp
Assay type: cell-based, Mycobacterium tuberculosis
[1] = read-out: EC50 H37Rv_DdnL49P_gfp

For `O=C(Nc1nc2ccc(Oc3ncccc3C(F)(F)F)cc2s1)[C@@H]1C2C=CC(C2)[C@@H]1C(=O)O` (stereo partly drawn) [Example 25, 3-[[6-[[3-(trifluoromethyl)-2-pyridyl]oxy]-1,3-benzothiazol-2-yl]carbamoyl]bicyclo[2.2.1]hept-5-ene-2-carboxylic acid], the EC50 [1] was 1000 to 5000 nM.
Compound `O=C1[C@@H]2C3C=CC(C3)[C@@H]2C(=O)N1c1nc2c(O)cccc2s1` [Example 74] has an EC50 [1] of 1000 to 5000 nM.
With `C#Cc1ccc2nc(N3C(=O)[C@@H]4[C@H](C3=O)[C@@H]3C=C[C@H]4C3)sc2c1` [Example 72, (1R,2S,6R,7S)-4-(6-ethynyl-1,3-benzothiazol-2-yl)-4-azatricyclo[5.2.1.02,6]dec-8-ene-3,5-dione] the EC50 [1] was 1000 to 5000 nM.
For `O=C(Nc1nc2ccc(Oc3ccc(Br)cn3)cc2s1)[C@@H]1C2C=CC(C2)[C@@H]1C(=O)O` (stereo partly drawn) [Example 37, 3-[[6-[(5-bromo-2-pyridyl)oxy]-1,3-benzothiazol-2-yl]carbamoyl]bicyclo [2.2.1]hept-5-ene-2-carboxylic acid], the EC50 [1] was 1000 to 5000 nM.
`O=C1[C@@H]2[C@H](C(=O)N1c1nc3ccc(Oc4ccc(C(F)(F)F)cc4)cc3s1)[C@@H]1C=C[C@H]2C1` [Example 23, (1R,2S,6R,7S)-4-[6-[4-(trifluoromethyl)phenoxy]-1,3-benzothiazol-2-yl]-4-azatricyclo[5.2.1.02,6]dec-8-ene-3,5-dione] showed an EC50 [1] of 1000 to 5000 nM.
Compound `O=C(Nc1nc2ccc(OC(F)(F)F)cc2s1)[C@@H]1C2C=CC(C2)[C@@H]1C(=O)O` (stereo partly drawn) [Example 44, 3-[[6-(trifluoromethoxy)-1,3-benzothiazol-2-yl]carbamoyl]bicyclo[2.2.1]hept-5-ene-2-carboxylic acid] has an EC50 [1] of 1000 to 5000 nM.
For `O=C1[C@@H]2[C@H](C(=O)N1c1nc3ccc(Oc4cccc(C(F)(F)F)n4)cc3s1)[C@@H]1C=C[C@H]2C1` [Example 34, (1R,2S,6R,7S)-4-[6-[[6-(trifluoromethyl)-2-pyridyl]oxy]-1,3-benzothiazol-2-yl]-4-azatricyclo[5.2.1.02,6]dec-8-ene-3,5-dione], the EC50 [1] was 1000 to 5000 nM.
In the case of `O=C(O)C1C2C=CC(C2)C1C(=O)Nc1nc2ccc([N+](=O)[O-])cc2s1` (stereo not drawn) [Example 38, 3-[(6-nitro-1,3-benzothiazol-2-yl)carbamoyl]bicyclo[2.2.1]hept-5-ene-2-carboxylic acid], the EC50 [1] is reported as 5000 to 10000 nM.
`C#CCOc1cccc2sc(NC(=O)[C@@H]3C4C=CC(C4)[C@@H]3C(=O)O)nc12` (stereo partly drawn) [Example 75, 3-[(4-prop-2-ynoxy-1,3-benzothiazol-2-yl)carbamoyl]bicyclo[2.2.1]hept-5-ene-2-carboxylic acid] gave an EC50 [1] of 1000 to 5000 nM.
For `Cc1cc(C)c2nc(NC(=O)[C@@H]3C4C=CC(C4)[C@@H]3C(=O)O)sc2c1` (stereo partly drawn) [Example 13, 3-[(4,6-dimethyl-1,3-benzothiazol-2-yl)carbamoyl]bicyclo[2.2.1]hept-5-ene-2-carboxylic acid], the EC50 [1] was 1000 to 5000 nM.
In the case of `Cc1ccnc(Oc2ccc3nc(NC(=O)[C@@H]4C5C=CC(C5)[C@@H]4C(=O)O)sc3c2)c1` (stereo partly drawn) [Example 29, 3-[[6-[(4-methyl-2-pyridyl)oxy]-1,3-benzothiazol-2-yl]carbamoyl]bicyclo[2.2.1]hept-5-ene-2-carboxylic acid], the EC50 [1] is reported as < 1000 nM.
`O=C(Nc1nc2ccc(Oc3ccccc3)cc2s1)[C@@H]1C2C=CC(C2)[C@@H]1C(=O)O` (stereo partly drawn) [Example 18, [2-hydroxy-1,1-bis(hydroxymethyl)ethyl]ammonium: (1R,2S,3R,4S)-3-[(6-phenoxy-1,3-benzothiazol-2-yl)carbamoyl]bicyclo[2.2.1]hept-5-ene-2-carboxylate] was tested, and the EC50 [1] was < 1000 nM.
In the case of `Cc1ccnc(Oc2ccc3nc(N4C(=O)[C@@H]5C6C=CC(C6)[C@@H]5C4=O)sc3c2)c1` [Example 30], the EC50 [1] is reported as < 1000 nM.
Compound `O=C(Nc1nc2ccc(-c3ccccc3)cc2s1)[C@@H]1C2C=CC(C2)[C@@H]1C(=O)O` (stereo partly drawn) [Example 51] has an EC50 [1] of 1000 to 5000 nM.
With `N#Cc1ccnc(Oc2ccc3nc(N4C(=O)[C@@H]5[C@H](C4=O)[C@@H]4C=C[C@H]5C4)sc3c2)c1` [Example 31, 2-[[2-[(1R,2S,6R,7S)-3,5-dioxo-4-azatricyclo[5.2.1.02,6]dec-8-en-4-yl]-1,3-benzothiazol-6-yl]oxy]pyridine-4-carbonitrile] the EC50 [1] was 5000 to 10000 nM.
In the case of `O=C1[C@@H]2[C@H](C(=O)N1c1nc3ccc(-c4ccsc4)cc3s1)[C@@H]1C=C[C@H]2C1` [Example 68, (1R,2S,6R,7S)-4-[6-(3-thienyl)-1,3-benzothiazol-2-yl]-4-azatricyclo[5.2.1.02,6]dec-8-ene-3,5-dione], the EC50 [1] is reported as 1000 to 5000 nM.
For `O=C1[C@@H]2[C@H](C(=O)N1c1nc3ccc(Oc4cc(C(F)(F)F)ccn4)cc3s1)[C@@H]1C=C[C@H]2C1` [Example 28, (1R,2S,6R,7S)-4-[6-[[4-(trifluoromethyl)-2-pyridyl]oxy]-1,3-benzothiazol-2-yl]-4-azatricyclo[5.2.1.02,6]dec-8-ene-3,5-dione], the EC50 [1] was < 1000 nM.
`O=C1[C@@H]2C3C=CC(C3)[C@@H]2C(=O)N1c1nc2ccc(Nc3cccc(C(F)(F)F)n3)cc2s1` [Example 97, 4-[6-[[6-(trifluoromethyl)-2-pyridyl]amino]-1,3-benzothiazol-2-yl]-4-azatricyclo[5.2.1.02,6]dec-8-ene-3,5-dione] was tested, and the EC50 [1] was < 1000 nM.
`O=C(Nc1nc2ccc(-c3ccccc3C(F)(F)F)cc2s1)[C@@H]1C2C=CC(C2)[C@@H]1C(=O)O` (stereo partly drawn) [Example 57, 3-[6-[[2-(trifluoromethyl)phenyl]-1,3-benzothiazol-2-yl]carbamoyl]bicyclo[2.2.1]hept-5-ene-2-carboxylic acid] showed an EC50 [1] of 10000 to 20000 nM.
Compound `O=C(Nc1nc2ccc(-c3ccc(Cl)c(Cl)c3)cc2s1)[C@@H]1C2C=CC(C2)[C@@H]1C(=O)O` (stereo partly drawn) [Example 56, 3-[[6-(3,4-dichlorophenyl)-1,3-benzothiazol-2-yl]carbamoyl]bicycle [2.2.1]hept-5-ene-2-carboxylic acid] has an EC50 [1] of 1000 to 5000 nM.
For `O=C(Nc1nc2ccc(Oc3ccccc3)cc2s1)[C@@H]1C2C=CC(C2)[C@@H]1C(=O)O` (stereo partly drawn) [Example 17, 3-[(6-phenoxy-1,3-benzothiazol-2-yl)carbamoyl]bicyclo[2.2.1]hept-5-ene-2-carboxylic acid], the EC50 [1] was < 1000 nM.
In the case of `O=C1[C@@H]2[C@H](C(=O)N1c1nc3ccc(-c4ccc(C(F)(F)F)nc4)cc3s1)[C@@H]1C=C[C@H]2C1` [Example 67, (1R,2S,6R,7S)-4-[6-[6-(trifluoromethyl)-3-pyridyl]-1,3-benzothiazol-2-yl]-4-azatricyclo [5.2.1.02,6]dec-8-ene-3,5-dione], the EC50 [1] is reported as 1000 to 5000 nM.
With `O=C(Nc1nc2ccc(Oc3ccc(F)cc3)cc2s1)[C@@H]1C2C=CC(C2)[C@@H]1C(=O)O` (stereo partly drawn) [Example 21, 3-[[6-(4-fluorophenoxy)-1,3-benzothiazol-2-yl]carbamoyl]bicyclo[2.2.1]hept-5-ene-2-carboxylic acid] the EC50 (in combination with pretomanid, unit inferred, read-out: average EC50 H37Rv_DdnL49P_gfp) was 400 nM and the EC50 [1] was < 1000 nM.
`COC(=O)c1ccc2nc(NC(=O)[C@@H]3C4C=CC(C4)[C@@H]3C(=O)O)sc2c1` (stereo partly drawn) [Example 41, 3-[(6-methoxycarbonyl-1,3-benzothiazol-2-yl)carbamoyl]bicyclo[2.2.1]hept-5-ene-2-carboxylic acid] was tested, and the EC50 [1] was 1000 to 5000 nM.
For `O=C1[C@@H]2[C@H](C(=O)N1c1nc3ccc(-c4ccc(O)cc4)cc3s1)[C@@H]1C=C[C@H]2C1` [Example 63, (1R,2S,6R,7S)-4-[6-(4-hydroxyphenyl)-1,3-benzothiazol-2-yl]-4-azatricyclo[5.2.1.02,6]dec-8-ene-3,5-dione], the EC50 [1] was 5000 to 10000 nM.
In the case of `C#CCOc1ccc2nc(N3C(=O)[C@@H]4[C@H](C3=O)[C@@H]3C=C[C@H]4C3)sc2c1` [Example 73, (1R,2S,6R,7S)-4-(6-prop-2-ynoxy-1,3-benzothiazol-2-yl)-4-azatricyclo[5.2.1.02,6]dec-8-ene-3,5-dione], the EC50 [1] is reported as < 1000 nM.
